Reference: patent publication US10370343B2, “[6,6] Fused bicyclic HDAC8 inhibitors” (FORMA Therapeutics, Inc., priority 2015, dated 2019)
pIC50: −log10 of the molar value.

These molecules were tested against T1, Full length human recombinant HDAC8 protein (Homo sapiens, UniProt Q9BY41) (assay: In vitro histone deacetylase assay: enzymatic HDAC8 electrophoretic mobility shift assay). Conditions: electrophoretic mobility shift assay; enzyme 1 nM; 2 μM fluorescently labeled peptide substrate RHKK(Ac)-NH2; 25° C.; 12 concentrations; read-out: HDAC8 IC50.
T1 construct: Full length human recombinant HDAC8 protein was expressed in baculoviral system; made in house
T1 sequence (Q9BY41 1-377): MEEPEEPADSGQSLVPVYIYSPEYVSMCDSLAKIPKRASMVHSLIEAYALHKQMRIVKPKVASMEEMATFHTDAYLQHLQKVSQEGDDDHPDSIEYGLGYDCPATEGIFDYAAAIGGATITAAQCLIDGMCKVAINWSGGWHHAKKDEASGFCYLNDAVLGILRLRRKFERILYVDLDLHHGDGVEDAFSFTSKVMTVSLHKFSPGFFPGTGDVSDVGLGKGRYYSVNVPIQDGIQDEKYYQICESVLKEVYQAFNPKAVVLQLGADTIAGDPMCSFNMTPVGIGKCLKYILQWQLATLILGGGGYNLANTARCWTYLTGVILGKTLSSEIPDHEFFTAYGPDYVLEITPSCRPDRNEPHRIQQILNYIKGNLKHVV
Type: biochemical
In the case of `CN1CCCC[C@H]1CN1C(=O)COc2ccc(C(=O)NO)cc21` (stereo in doubt) [Compound I-47, N-hydroxy-4-((1-methylpiperidin-2-yl)methyl)-3-oxo-3,4-dihydro-2H-benzo[b][1,4]oxazine-6-carboxamide], the pIC50 was < 6.00.
For `O=C(NO)c1ccc2c(c1)N(CC[C@@H]1CCS(=O)(=O)C1)C(=O)CO2` (stereo in doubt) [Compound I-54, 4-(2-(1,1-dioxidotetrahydrothiophen-3-yl)ethyl)-N-hydroxy-3-oxo-3,4-dihydro-2H-benzo[b][1,4]oxazine-6-carboxamide], the pIC50 was 6.00 to 7.00.
`O=C(NO)c1ccc2c(c1)N(Cc1csc(C3CC3)n1)CCO2` [Compound I-20, 4-((2-cyclopropylthiazol-4-yl)methyl)-N-hydroxy-3,4-dihydro-2H-benzo[b][1,4]oxazine-6-carboxamide] showed a pIC50 of 6.00 to 7.00.
In the case of `O=C(NO)c1ccc2c(c1)N(Cc1ccccc1F)CCO2` [Compound I-27, 4-(2-fluorobenzyl)-N-hydroxy-3,4-dihydro-2H-benzo[b][1,4]oxazine-6-carboxamide], the pIC50 was > 7.60.
For `CS(=O)(=O)c1ccc(CN2CCOc3ccc(C(=O)NO)cc32)c(Cl)c1` [Compound I-134, 4-(2-chloro-4-(methylsulfonyl)benzyl)-N-hydroxy-3,4-dihydro-2H-benzo[b][1,4]oxazine-6-carboxamide], the pIC50 was > 7.60.
`CC(c1ccccc1Cl)N1CCOc2ccc(C(=O)NO)cc21` (stereo not drawn) [Compound I-136, 4-(1-(2-chlorophenyl)ethyl)-N-hydroxy-3,4-dihydro-2H-benzo[b][1,4]oxazine-6-carboxamide] was tested, and the pIC50 was 6.00 to 7.00.
Molecule `CS(=O)(=O)c1ccc(CN2CCOc3ccc(C(=O)NO)cc32)c(C(F)(F)F)c1` [Compound I-137, N-hydroxy-4-(4-(methylsulfonyl)-2-(trifluoromethyl)benzyl)-3,4-dihydro-2H-benzo[b][1,4]oxazine-6-carboxamide] has a pIC50 of 7.00 to 7.60.
`COc1cc(CN2CCOc3ccc(C(=O)NO)cc32)ccc1S(C)(=O)=O` [Compound I-138, N-hydroxy-4-(3-methoxy-4-(methylsulfonyl)benzyl)-3,4-dihydro-2H-benzo[b][1,4]oxazine-6-carboxamide] gave a pIC50 of 6.00 to 7.00.
For `COc1ccc(CN2CCOc3ccc(C(=O)NO)cc32)cc1S(C)(=O)=O` [Compound I-139, N-hydroxy-4-(4-methoxy-3-(methylsulfonyl)benzyl)-3,4-dihydro-2H-benzo[b][1,4]oxazine-6-carboxamide], the pIC50 was 7.00 to 7.60.
With `O=C(NO)c1ccc2c(c1)N(C(=O)c1ccccc1)CCO2` [Compound I-140, 4-benzoyl-N-hydroxy-3,4-dihydro-2H-benzo[b][1,4]oxazine-6-carboxamide] the pIC50 was < 6.00.
`O=C(NO)c1ccc2c(c1)N(Cc1cccc(C(F)(F)F)c1)C(=O)CO2` [Compound I-144, N-hydroxy-3-oxo-4-(3-(trifluoromethyl)benzyl)-3,4-dihydro-2H-benzo[b][1,4]oxazine-6-carboxamide] was tested, and the pIC50 was > 7.60.
For `O=C(NO)c1ccc2c(c1)N(Cc1cccc(OC(F)(F)F)c1)C(=O)CO2` [Compound I-146, N-hydroxy-3-oxo-4-(3-(trifluoromethoxy)benzyl)-3,4-dihydro-2H-benzo[b][1,4]oxazine-6-carboxamide], the pIC50 was > 7.60.
Molecule `Cc1ccccc1CN1C(=O)COc2ccc(C(=O)NO)cc21` [Compound I-148, N-hydroxy-4-(2-methylbenzyl)-3-oxo-3,4-dihydro-2H-benzo[b][1,4]oxazine-6-carboxamide] has a pIC50 of 6.00 to 7.00.
Work on `CC1Oc2ccc(C(=O)NO)cc2N(Cc2ccccc2)C1=O` (stereo not drawn) [Compound I-153, 4-benzyl-N-hydroxy-2-methyl-3-oxo-3,4-dihydro-2H-benzo[b][1,4]oxazine-6-carboxamide] yielded a pIC50 of 7.00 to 7.60.
For `COc1ccc(CN2c3cc(C(=O)NO)ccc3OCC2C)cc1` (stereo not drawn) [Compound I-155, N-hydroxy-4-(4-methoxybenzyl)-3-methyl-3,4-dihydro-2H-benzo[b][1,4]oxazine-6-carboxamide], the pIC50 was 7.00 to 7.60.
For `O=C(NO)c1ccc2c(c1)N(C(=O)N1CC3(CCOCC3)c3ccccc31)CCO2` [Compound I-156, N-hydroxy-4-(2′,3′,5′,6′-tetrahydrospiro[indoline-3,4′-pyran]-1-carbonyl)-3,4-dihydro-2H-benzo[b][1,4]oxazine-6-carboxamide], the pIC50 was < 6.00.
`COc1ccc(CN2C(=O)C3(CCCCC3)Oc3ccc(C(=O)NO)cc32)cc1` [Compound I-158, N-hydroxy-4-(4-methoxybenzyl)-3-oxo-3,4-dihydrospiro[benzo[b][1,4]oxazine-2,1′-cyclohexane]-6-carboxamide] showed a pIC50 of 6.00 to 7.00.
Molecule `COc1ccc(CN2C(=O)C(C)(C)Oc3ccc(C(=O)NO)cc32)c(Cl)c1` [Compound I-159, 4-(2-chloro-4-methoxybenzyl)-N-hydroxy-2,2-dimethyl-3-oxo-3,4-dihydro-2H-benzo[b][1,4]oxazine-6-carboxamide] has a pIC50 of 7.00 to 7.60.
In the case of `Cc1ccc(CN2C(=O)COc3ccc(C(=O)NO)cc32)cc1C` [Compound I-219, 4-(3,4-dimethylbenzyl)-N-hydroxy-3-oxo-3,4-dihydro-2H-benzo[b][1,4]oxazine-6-carboxamide], the pIC50 was > 7.60.
`O=C(NO)c1ccc2c(c1)N(Cc1ccccc1-c1ccccc1)C(=O)CO2` [Compound I-257, 4-([1,1′-biphenyl]-2-ylmethyl)-N-hydroxy-3-oxo-3,4-dihydro-2H-benzo[b][1,4]oxazine-6-carboxamide] was tested, and the pIC50 was 6.00 to 7.00.
For `O=C(NO)c1ccc2c(c1)N(Cc1nc3ccc(Cl)cc3n1CC1CC1)C(=O)CO2` [Compound I-260, 4-((6-chloro-1-(cyclopropylmethyl)-1H-benzo[d]imidazol-2-yl)methyl)-N-hydroxy-3-oxo-3,4-dihydro-2H-benzo[b][1,4]oxazine-6-carboxamide], the pIC50 was 6.00 to 7.00.
With `O=C(NO)c1ccc2c(c1)N(Cc1ccccc1SC(F)(F)F)C(=O)CO2` [Compound I-262, N-hydroxy-3-oxo-4-(2-((trifluoromethyl)thio)benzyl)-3,4-dihydro-2H-benzo[b][1,4]oxazine-6-carboxamide] the pIC50 was 7.00 to 7.60.
For `CCn1c(CN2C(=O)COc3ccc(C(=O)NO)cc32)nc2ccc(Cl)cc21` [Compound I-269, 4-((6-chloro-1-ethyl-1H-benzo[d]imidazol-2-yl)methyl)-N-hydroxy-3-oxo-3,4-dihydro-2H-benzo[b][1,4]oxazine-6-carboxamide], the pIC50 was 6.00 to 7.00.
In the case of `O=C(NO)c1ccc2c(c1)N(Cc1nc3ccccc3n1CC1CC1)C(=O)CO2` [Compound I-279, 4-((1-(cyclopropylmethyl)-1H-benzo[d]imidazol-2-yl)methyl)-N-hydroxy-3-oxo-3,4-dihydro-2H-benzo[b][1,4]oxazine-6-carboxamide], the pIC50 was 6.00 to 7.00.
Molecule `CCCn1c(CN2C(=O)COc3ccc(C(=O)NO)cc32)nc2ccccc21` [Compound I-282, N-hydroxy-3-oxo-4-((1-propyl-1H-benzo[d]imidazol-2-yl)methyl)-3,4-dihydro-2H-benzo[b][1,4]oxazine-6-carboxamide] has a pIC50 of 6.00 to 7.00.
With `CCCc1nc(C)sc1CN1C(=O)COc2ccc(C(=O)NO)cc21` [Compound I-283, N-hydroxy-4-((2-methyl-4-propylthiazol-5-yl)methyl)-3-oxo-3,4-dihydro-2H-benzo[b][1,4]oxazine-6-carboxamide] the pIC50 was 6.00 to 7.00.

These molecules were tested against T2, Recombinant N-terminal GST tag full-length human HDAC8 (Homo sapiens, UniProt Q9BY41) (assay: HDAC8 probe binding assay, time resolved fluorescence (TRF) format). Conditions: compounds grouped by IC50 range (Table 2).
T2 construct: Recombinant N-terminal GST tag full-length human HDAC8; purchased SignalChem H90-30G-1000; host or cells: baculovirus in Sf9 insect cells
T2 sequence (Q9BY41 1-377): T1 sequence (Q9BY41 1-377)
In short: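 Probe-binding TRF assay using full-length N-GST human HDAC8 expressed in baculovirus-infected Sf9 cells, incubated 16 h at room temperature and read at 340 nm excitation, 485/535 nm emission. Percent inhibition was normalised to no-enzyme and DMSO controls. IC50 was obtained by 4-parameter logistic fit.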
`CN1CCCC[C@H]1CN1C(=O)COc2ccc(C(=O)NO)cc21` (stereo in doubt) [Compound I-47, N-hydroxy-4-((1-methylpiperidin-2-yl)methyl)-3-oxo-3,4-dihydro-2H-benzo[b][1,4]oxazine-6-carboxamide] was tested, and the pIC50 was < 6.00.
`O=C(NO)c1ccc2c(c1)N(CC[C@@H]1CCS(=O)(=O)C1)C(=O)CO2` (stereo in doubt) [Compound I-54, 4-(2-(1,1-dioxidotetrahydrothiophen-3-yl)ethyl)-N-hydroxy-3-oxo-3,4-dihydro-2H-benzo[b][1,4]oxazine-6-carboxamide] showed a pIC50 of 7.00 to 7.60.
`O=C(NO)c1ccc2c(c1)N(Cc1csc(C3CC3)n1)CCO2` [Compound I-20, 4-((2-cyclopropylthiazol-4-yl)methyl)-N-hydroxy-3,4-dihydro-2H-benzo[b][1,4]oxazine-6-carboxamide] was tested, and the pIC50 was < 6.00.
With `O=C(NO)c1ccc2c(c1)N(Cc1ccccc1F)CCO2` [Compound I-27, 4-(2-fluorobenzyl)-N-hydroxy-3,4-dihydro-2H-benzo[b][1,4]oxazine-6-carboxamide] the pIC50 was 7.00 to 7.60.
